Assay results as given in PubChem BioAssay (NCI).
“And” between values parts separate entries of the source, which are not always exact repeats. Equal values may be shown once.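 Briefly, cells in 96-well plates were exposed to five compound concentrations for 48 h, and endpoints were estimated by linear interpolation. GI50: concentration for 50% inhibition of growth. TGI: total growth inhibition.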

Tests used:
Assay in all cases: NCI tumour cell line growth inhibition, 48 h
HCC-2998 colon = test system: HCC-2998 colon
SN12C renal = test system: SN12C renal
SNB-19 CNS = test system: SNB-19 CNS
MOLT-4 leukemia = test system: MOLT-4 leukemia
T-47D breast = test system: T-47D breast
OVCAR-4 ovarian = test system: OVCAR-4 ovarian
OVCAR-8 ovarian = test system: OVCAR-8 ovarian
TK-10 renal = test system: TK-10 renal
SW-620 colon = test system: SW-620 colon
HOP-62 NSCLC = test system: HOP-62 NSCLC

| SMILES | GI50 (HCC-2998 colon) | TGI (HCC-2998 colon) | GI50 (SN12C renal) | TGI (SN12C renal) | GI50 (SNB-19 CNS) | TGI (SNB-19 CNS) | GI50 (MOLT-4 leukemia) | TGI (MOLT-4 leukemia) | GI50 (T-47D breast) | TGI (T-47D breast) | GI50 (OVCAR-4 ovarian) | TGI (OVCAR-4 ovarian) | GI50 (OVCAR-8 ovarian) | TGI (OVCAR-8 ovarian) | GI50 (TK-10 renal) | TGI (TK-10 renal) | GI50 (SW-620 colon) | TGI (SW-620 colon) | GI50 (HOP-62 NSCLC) | TGI (HOP-62 NSCLC) |
| --- | --- | --- | --- | --- | --- | --- | --- | --- | --- | --- | --- | --- | --- | --- | --- | --- | --- | --- | --- | --- |
| C=C(CN(C)Cc1ccccc1)c1ccc(NC(=O)c2ccc(C(=C)CN(C)Cc3ccccc3)cc2)cc1 | 37.2 µM | > 100 µM | > 100 µM | > 100 µM | 25.5 µM | 80.1 µM | 49.8 µM | > 100 µM | 20.7 µM | 87.4 µM | 17.6 µM | 38.6 µM | 45.3 µM | > 100 µM | > 100 µM | > 100 µM | 96.7 µM | > 100 µM | 18.8 µM | 36.9 µM |
| NC(=S)N/N=C/c1ncccc1O | 3.08 µM | > 42.3 µM and 166 µM | 2.04 µM | 24.1 µM and 45.2 µM | 3.61 µM | 295 µM | 1.76 µM | 33.2 µM and 42.7 µM | – | > 823 µM | 5.21 µM | > 929 µM | 2.58 µM and 0.813 µM | > 72.2 µM and 135 µM | 11.2 µM | 292 µM | 3.3 µM | > 839 µM | 2.6 µM | 11.1 µM and 16.7 µM |
| CCCCNCCCNCCCNC(=O)c1csc(-c2csc(CCNC(=O)C(NC(=O)C(C)C(O)C(C)NC(=O)C(NC(=O)c3nc(C(CC(N)=O)NCC(N)C(N)=O)nc(N)c3C)C(OC3OC(CO)C(O)C(O)C3OC3OC(CO)C(O)C(OC(N)=O)C3O)c3cnc[nH]3)C(C)O)n2)n1 (stereo unspecified) | 15.9 µM | 50 µM and > 100 µM | 1.13 µM | 50 µM and 8.53 µM | – | 50 µM and > 65.7 µM | 1.22 µM | 50 µM and > 27.1 µM | – | 50 µM | 0.459 µM | – | 0.908 µM | 12.1 µM and 40.4 µM | > 50 µM | > 50 µM and 58.2 µM | 11 µM | 50 µM and > 100 µM | 0.109 µM | 8.65 µM |
| COc1c2occc2c(N)c2ccc(=O)oc12 | – | > 100 µM | – | > 100 µM | – | > 100 µM | – | > 100 µM | – | > 100 µM | – | > 100 µM | – | > 100 µM | – | > 100 µM | – | > 100 µM | – | > 100 µM |
| O=C(Nc1ncc(Cc2cccc(C(F)(F)F)c2)s1)c1ccc2c(c1)OCCO2 | 0.337 µM | 17.5 µM | 0.592 µM | > 100 µM | 0.506 µM | > 68.4 µM | 0.67 µM | > 100 µM | 0.606 µM | > 100 µM | 0.608 µM | > 100 µM | 0.485 µM | > 100 µM | 0.892 µM | > 39.2 µM | 0.352 µM | > 100 µM | 0.615 µM | > 40.9 µM |
| Nc1c(C(=O)Nc2ccccn2)sc2nc3c(cc12)C(=O)CCC3 | 3.15 µM | > 100 µM | 3.36 µM | > 100 µM | 1.3 µM | > 100 µM | > 100 µM | > 100 µM | 4.89 µM | > 100 µM | 6.26 µM | > 100 µM | 6.52 µM | > 100 µM | 22.3 µM | > 100 µM | 0.706 µM | > 100 µM | 1.75 µM | > 100 µM |
| COc1c(C)c(OCC=C(C)C)cc(CO)c1CO | – | > 100 µM | – | > 100 µM | – | > 100 µM | – | > 100 µM | – | > 100 µM | – | > 100 µM | – | > 100 µM | – | > 100 µM | – | > 100 µM | – | > 100 µM |
